These results are taken from US9238656B2, “Imidazo[4,5-b]pyridine derivatives as ALK and JAK modulators for the treatment of proliferative disorders” (priority 2012, dated 2016).

Molecules are shown by their SMILES.

In assay [1] the target is baculovirus-expressed ALK (Homo sapiens, UniProt Q9UM73). The assay can be described thus: ALK kinase inhibition, TRF/ELISA. The assay is classed as biochemical. To be noted: read-out: ALK Potency. A digest of the protocol: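 Plates were coated with GST-PLC-γ substrate (10 μg/mL) and the reaction was started with 30 ng/mL ALK, running 15 min at 37° C. Phosphotyrosine was detected by time-resolved fluorescence with Eu-labeled PT66 antibody. IC50s came from variable-slope sigmoidal fits of percent inhibition versus log concentration.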
On the technique in general: In an ELISA, binding on a coated surface is turned into a signal by an enzyme label.

The target in assay [2] is baculovirus-expressed JAK2 kinase (Homo sapiens, UniProt O60674). The assay can be described thus: biochemical. Particulars: 0.2 μM ATP; read-out: JAK2 Potency. A digest of the protocol: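 Time-resolved fluorescence kinase assay using 15 ng/mL baculovirus-expressed JAK2 on Neutravidin-captured biotinylated 15-mer peptide substrate, reaction 20 min at room temperature. IC50 from percent inhibition versus log concentration, sigmoidal variable-slope fit.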
Chain of baculovirus-expressed JAK2 kinase (O60674 whole entry): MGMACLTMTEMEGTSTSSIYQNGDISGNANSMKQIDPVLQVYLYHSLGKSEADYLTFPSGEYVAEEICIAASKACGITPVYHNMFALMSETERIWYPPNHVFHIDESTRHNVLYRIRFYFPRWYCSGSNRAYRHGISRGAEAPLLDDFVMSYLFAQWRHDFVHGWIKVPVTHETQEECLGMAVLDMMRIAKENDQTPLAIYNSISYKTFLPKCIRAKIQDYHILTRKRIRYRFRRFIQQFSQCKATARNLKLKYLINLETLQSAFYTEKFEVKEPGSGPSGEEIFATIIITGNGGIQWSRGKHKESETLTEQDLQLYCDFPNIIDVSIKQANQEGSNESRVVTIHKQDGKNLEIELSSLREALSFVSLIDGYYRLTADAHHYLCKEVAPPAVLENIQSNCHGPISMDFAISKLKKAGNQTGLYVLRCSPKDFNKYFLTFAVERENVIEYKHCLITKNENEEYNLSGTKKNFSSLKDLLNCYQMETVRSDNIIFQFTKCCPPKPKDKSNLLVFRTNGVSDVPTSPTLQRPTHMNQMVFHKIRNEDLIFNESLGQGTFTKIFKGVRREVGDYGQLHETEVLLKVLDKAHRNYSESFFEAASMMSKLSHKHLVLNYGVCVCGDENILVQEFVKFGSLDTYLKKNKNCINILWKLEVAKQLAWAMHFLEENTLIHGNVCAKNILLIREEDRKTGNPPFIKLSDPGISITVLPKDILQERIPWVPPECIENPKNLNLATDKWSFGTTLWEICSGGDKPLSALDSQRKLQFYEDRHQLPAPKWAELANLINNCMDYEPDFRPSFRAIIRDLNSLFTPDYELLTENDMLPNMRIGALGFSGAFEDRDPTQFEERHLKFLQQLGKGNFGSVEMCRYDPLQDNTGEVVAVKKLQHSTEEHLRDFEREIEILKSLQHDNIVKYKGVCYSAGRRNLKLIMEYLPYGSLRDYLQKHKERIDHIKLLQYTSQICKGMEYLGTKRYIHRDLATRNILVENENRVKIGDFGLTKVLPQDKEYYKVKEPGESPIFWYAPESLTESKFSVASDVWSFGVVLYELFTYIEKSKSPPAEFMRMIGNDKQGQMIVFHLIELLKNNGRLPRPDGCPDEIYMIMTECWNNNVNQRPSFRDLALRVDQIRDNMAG

Chain of baculovirus-expressed ALK (Q9UM73 19-1620): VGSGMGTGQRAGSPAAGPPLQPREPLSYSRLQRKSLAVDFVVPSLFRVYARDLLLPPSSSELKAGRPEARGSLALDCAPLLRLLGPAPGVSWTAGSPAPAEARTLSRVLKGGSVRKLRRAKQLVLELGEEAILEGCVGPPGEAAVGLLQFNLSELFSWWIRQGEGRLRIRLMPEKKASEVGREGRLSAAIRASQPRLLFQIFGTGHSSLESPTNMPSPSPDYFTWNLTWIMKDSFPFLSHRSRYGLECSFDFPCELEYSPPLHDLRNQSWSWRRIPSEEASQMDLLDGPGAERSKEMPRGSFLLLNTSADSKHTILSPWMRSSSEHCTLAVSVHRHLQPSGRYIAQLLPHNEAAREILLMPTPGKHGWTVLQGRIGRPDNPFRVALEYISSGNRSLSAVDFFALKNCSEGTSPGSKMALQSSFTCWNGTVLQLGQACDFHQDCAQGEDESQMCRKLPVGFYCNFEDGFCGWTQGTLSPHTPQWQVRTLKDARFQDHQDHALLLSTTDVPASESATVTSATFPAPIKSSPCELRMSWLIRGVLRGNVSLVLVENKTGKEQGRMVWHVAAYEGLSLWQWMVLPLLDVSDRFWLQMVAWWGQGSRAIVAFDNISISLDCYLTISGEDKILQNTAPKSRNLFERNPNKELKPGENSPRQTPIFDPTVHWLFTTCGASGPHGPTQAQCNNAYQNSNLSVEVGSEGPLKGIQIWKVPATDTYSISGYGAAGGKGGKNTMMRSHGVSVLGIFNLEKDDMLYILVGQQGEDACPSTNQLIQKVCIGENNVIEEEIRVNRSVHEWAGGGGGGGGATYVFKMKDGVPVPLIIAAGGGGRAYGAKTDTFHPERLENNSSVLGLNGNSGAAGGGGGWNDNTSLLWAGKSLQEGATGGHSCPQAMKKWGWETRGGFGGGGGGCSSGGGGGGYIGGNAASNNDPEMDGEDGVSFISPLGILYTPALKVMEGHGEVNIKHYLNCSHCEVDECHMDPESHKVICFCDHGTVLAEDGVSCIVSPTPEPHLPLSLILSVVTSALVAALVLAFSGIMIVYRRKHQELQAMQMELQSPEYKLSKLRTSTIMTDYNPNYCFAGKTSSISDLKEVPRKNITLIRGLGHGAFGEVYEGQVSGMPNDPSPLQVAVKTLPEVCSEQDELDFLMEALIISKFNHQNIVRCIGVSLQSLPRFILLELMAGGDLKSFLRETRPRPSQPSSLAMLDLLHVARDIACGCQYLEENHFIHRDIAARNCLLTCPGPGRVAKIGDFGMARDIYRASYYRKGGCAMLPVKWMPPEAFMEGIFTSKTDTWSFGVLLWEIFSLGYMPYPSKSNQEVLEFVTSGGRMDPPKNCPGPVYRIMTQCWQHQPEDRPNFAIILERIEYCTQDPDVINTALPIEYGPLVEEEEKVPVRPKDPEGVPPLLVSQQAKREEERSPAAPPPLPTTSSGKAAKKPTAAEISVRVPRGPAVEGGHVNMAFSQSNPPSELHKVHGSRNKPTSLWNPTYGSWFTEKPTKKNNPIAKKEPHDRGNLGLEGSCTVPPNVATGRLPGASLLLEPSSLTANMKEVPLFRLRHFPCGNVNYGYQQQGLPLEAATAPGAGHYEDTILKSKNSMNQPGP

In the case of `COc1cc(N(C)C)ccc1-c1nc2c(N[C@H]3[C@@H](C(N)=O)[C@@H]4C=C[C@H]3C4)c(Cl)cnc2[nH]1` [Compound XVII, (1S,2S,3R,4R)-3-[6-Chloro-2-(4-dimethylamino-2-methoxy-phenyl)-3H-imidazo[4,5-b]pyridine-7-ylamino]-bicyclo[2.2.1]hept-5-ene-2-carboxylic acid amide], the IC50 in assay [1] and in assay [2] was below 100 nM in each case.
With `NC(=O)[C@@H]1[C@H](Nc2c(Br)cnc3[nH]c(-c4ccc(Cl)cc4)nc23)[C@H]2C=C[C@@H]1C2` [Compound CXLIII, (1S,2S,3R,4R)-3-[6-Bromo-2-(4-chloro-phenyl)-3H-imidazo[4,5-b]pyridin-7-ylamino]-bicyclo[2.2.1]hept-5-ene-2-carboxylic acid amide], the IC50 in assay [1] is 100 to 1000 nM; in assay [2], below 100 nM.
In the same order, the values of `CC(O)CN1CCC(Oc2ccc(-c3nc4c(N[C@H]5[C@@H](C(N)=O)[C@@H]6C=C[C@H]5C6)c(Cl)cnc4[nH]3)cc2)CC1` (stereo partly drawn) [Compound CCLII, (1S,2S,3R,4R)-3-(6-chloro-2-(4-(1-(2-hydroxypropyl)piperidin-4-yloxy)phenyl)-3H-imidazo[4,5-b]pyridin-7-ylamino)bicyclo[2.2.1]hept-5-ene-2-carboxamide] are below 100 nM and below 100 nM.
On the same counts, the results for `COc1cc(C2CCN(C[C@H](C)O)CC2)ccc1-c1nc2c(N[C@H]3[C@@H](C(N)=O)[C@@H]4C=C[C@H]3C4)c(Cl)cnc2[nH]1` [Compound XLV, (1S,2S,3R,4R)-3-(6-Chloro-2-{4-[1-((S)-2-hydroxypropyl)-piperidin-4-yl]-2-methoxyphenyl}-3H-imidazo[4,5-b]pyridine-7-ylamino)-bicyclo[2.2.1]hept-5-ene-2-carboxylic acid amide] are below 100 nM and below 100 nM.
In the same order, the values of `Cc1nc(C2CCN(CC(N)=O)CC2)sc1-c1nc2c(N[C@H]3[C@@H](C(N)=O)[C@@H]4C=C[C@H]3C4)c(Cl)cnc2[nH]1` [Compound LXV, (1S,2S,3R,4R)-3-{2-[2-(1-Carbamoylmethyl-piperidin-4-yl)-4-methyljj-thiazol-5-yl]-6-chloro-3H-imidazo[4,5-b]pyridine-7-ylamino}-bicyclo[2.2.1]hept-5-ene-2-carboxylic acid amide] are below 100 nM and below 100 nM.
As to `NC(=O)[C@@H]1[C@H](Nc2c(Br)cnc3[nH]c(-c4ccc(C(F)(F)F)nc4)nc23)[C@H]2C=C[C@@H]1C2` [Compound CXXXIX, (1S,2S,3R,4R)-3-[6-Bromo-2-(6-trifluoromethyl-pyridin-3-yl)-3H-imidazo[4,5-b]pyridin-7-ylamino]-bicyclo[2.2.1]hept-5-ene-2-carboxylic acid amide], the IC50 was 1000 to 10000 nM in assay [1] and below 100 nM in assay [2].
In the same order, the values of `Cc1nn(C)c(C)c1-c1nc2c(N[C@H]3[C@@H](C(N)=O)[C@@H]4C=C[C@H]3C4)c(Br)cnc2[nH]1` [Compound CLII, (1S,2S,3R,4R)-3-[6-Bromo-2-(1,3,5-trimethyl-1H-pyrazol-4-yl)-3H-imidazo[4,5-b]pyridin-7-ylamino]-bicyclo[2.2.1]hept-5-ene-2-carboxylic acid amide] are below 100 nM and below 100 nM.
On the same counts, the results for `COc1ncc(-c2nc3c(N[C@H]4[C@@H](C(N)=O)[C@@H]5C=C[C@H]4C5)c(Cl)cnc3[nH]2)s1` [Compound CCIX, (1S,2S,3R,4R)-3-(6-chloro-2-(2-methoxythiazol-5-yl)-3H-imidazo[4,5-b]pyridin-7-ylamino)bicyclo[2.2.1]hept-5-ene-2-carboxamide] are 100 to 1000 nM and below 100 nM.
For `CN1CCN(CCOc2ccc(-c3nc4c(N[C@H]5[C@@H](C(=O)N(C)C)[C@@H]6C=C[C@H]5C6)c(Cl)cnc4[nH]3)cc2)CC1` [Compound CLXXV, (1S,2S,3R,4R)-3-(6-Chloro-2-{4-[2-(4-methyl-piperazin-1-yl)-ethoxy]-phenyl}-3H-imidazo[4,5-b]pyridin-7-ylamino)-bicyclo[2.2.1]hept-5-ene-2-carboxylic acid dimethylamide], the IC50 in assay [1] and in assay [2] was below 100 nM each time.
Consider `CN(C)CCNC(=O)c1ccc(-c2nc3c(N[C@H]4[C@@H](C(N)=O)[C@@H]5C=C[C@H]4C5)c(Cl)cnc3[nH]2)cc1` [Compound CCXXXII, (1S,2S,3R,4R)-3-{6-Chloro-2-[4-(2-dimethylamino-ethylcarbamoyl)-phenyl]-3H-imidazo[4,5-b]pyridine-7-ylamino}-bicyclo[2.2.1]hept-5-ene-2-carboxylic acid amide], for which the IC50 in assay [1] and in assay [2] was below 100 nM throughout.
Take `CN(C)c1ccc(-c2nc3c(N[C@H]4[C@@H](C(N)=O)[C@@H]5C=C[C@H]4C5)c(Cl)cnc3[nH]2)cc1` [Compound I, (1S,2S,3R,4R)-3-[6-Chloro-2-(4-dimethylamino-phenyl)-3H-imidazo[4,5-b]pyridin-7-ylamino]-bicyclo[2.2.1]hept-5-ene-2-carboxylic acid amide]: the IC50 in assay [1] and in assay [2] was below 100 nM each time.
With `CN(C)c1cccc(-c2nc3c(N[C@H]4[C@@H](C(N)=O)[C@@H]5C=C[C@H]4C5)c(Cl)cnc3[nH]2)c1` [Compound XII, (1S,2S,3R,4R)-3-[6-Chloro-2-(3-dimethylamino-phenyl)-3H-imidazo[4,5-b]pyridin-7-ylamino]-bicyclo[2.2.1]hept-5-ene-2-carboxylic acid amide], the figures for the IC50 in assay [1] and in assay [2] were 100 to 1000 nM and below 100 nM, respectively.
As to `CN(C)CCNC(=O)c1cccc(-c2nc3c(N[C@H]4[C@@H](C(N)=O)[C@@H]5C=C[C@H]4C5)c(Cl)cnc3[nH]2)c1` [Compound CCXXXI, (1S,2S,3R,4R)-3-(6-chloro-2-(3-(2-(dimethylamino)ethylcarbamoyl)phenyl)-3H-imidazo[4,5-b]pyridine-7-ylamino)pyridin[2.2.1]hept-5-ene-2-carboxamide], the IC50 in assay [1] and in assay [2] was below 100 nM each time.
As to `CN1CCN(c2nc(Cl)c(-c3nc4c(N[C@H]5[C@@H](C(N)=O)[C@@H]6C=C[C@H]5C6)c(Cl)cnc4[nH]3)s2)CC1` [Compound CCXII, (1S,2S,3R,4R)-3-(6-chloro-2-(4-chloro-2-(4-methylpiperazin-1-yl)thiazol-5-yl)-3H-imidazo[4,5-b]pyridin-7-ylamino)bicyclo[2.2.1]hept-5-ene-2-carboxamide], the IC50 in assay [1] and in assay [2] was below 100 nM each time.
Regarding `CN(C)CCOc1ccc(-c2nc3c(N[C@H]4[C@@H](C(=O)N(C)C)[C@@H]5C=C[C@H]4C5)c(Cl)cnc3[nH]2)cc1` [Compound CLXXVII, (1S,2S,3R,4R)-3-[6-Chloro-2-[4-(2-dimethylamino-ethoxy)-phenyl]-3H-imidazo[4,5-b]pyridin-7-ylamino]-bicyclo[2.2.1]hept-5-ene-2-carboxylic acid dimethylamide], the IC50 in assay [1] was 100 to 1000 nM; in assay [2], below 100 nM.
In the same order, the values of `Cc1cc(N2CCOCC2)ccc1-c1nc2c(N[C@H]3[C@@H](C(N)=O)[C@@H]4C=C[C@H]3C4)c(Cl)cnc2[nH]1` [Compound CXXI, (1S,2S,3R,4R)-3-[6-Chloro-2-(2-methyl-4-morpholin-4-yl-phenyl)-3H-imidazo[4,5-b]pyridin-7-ylamino]-bicyclo[2.2.1]hept-5-ene-2-carboxylic acid amide] are 100 to 1000 nM and below 100 nM.
